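Assay format: 96-well plates, 48-hour exposure. The concentration for full growth arrest is given as TGI.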 A value given as a limit tells only on which side of the number the result lay.

Holding throughout (test): inhibition of tumour cell growth, NCI panel, 48 h
For assay [1], the system named is T-47D breast.
The test system of assay [2] is HCT-15 colon.
The test system of assay [3] is HCT-116 colon.
For assay [4], the system named is RPMI-8226 leukemia.
Assay [5] relates to IGROV1 ovarian.
In assay [6] the test system is OVCAR-5 ovarian.
In assay [7] the test system is NCI-H522 lung.
The subject of assay [8] is CCRF-CEM leukemia.
The test system of assay [9] is A549 NSCLC.
Assay [10] deals with SF-268 CNS.
In assay [11] the test system is SR leukemia.
Assay [12] concerns DU-145 prostate.
The subject of assay [13] is SK-OV-3 ovarian.
The test system of assay [14] is TK-10 renal.
Assay [15] relates to A498 renal.

Turning to `C=C(C)C#CC(O)(C(=O)OC1CCN(C)CC1)C(C)C` (stereo not given), the TGI in assay [1], in assay [2], in assay [3], in assay [4], in [5] and in assay [6] was greater than 100 µM each time. Moreover, the TGI in assay [7], in assay [8], in assay [9], in assay [10], in assay [11] and in [12] was greater than 100 µM in each case. The TGI in assay [13] and in assay [14] was greater than 100 µM in each case.

As to `C=C[C@@H](OCOCC[Si](C)(C)C)[C@@H](CC)OC(CCCOC(=O)C(C)(C)C)OC` (stereo not given in full), the TGI in assay [1] was 56.5 µM; in assay [2] it was 50.9 µM; in assay [3] it was 52.8 µM; in [4] it was greater than 100 µM; in assay [5] it was greater than 100 µM; in [6], 44.4 µM. Moreover, the TGI in assay [8] was 92.8 µM; in assay [9], greater than 100 µM; in assay [15] it was greater than 100 µM; in assay [10], greater than 100 µM; in assay [11], greater than 100 µM; in [12] it was greater than 100 µM. Moreover, the TGI was greater than 100 µM in assay [13] and 78.9 µM in assay [14].

On to `COC1(C(C)(C)C)C=C(C(C)(C)C)P(=O)(O)O1` (stereo not given), for which the TGI in assay [1], in [2], in [3], in assay [4], in [5] and in assay [6] was greater than 100 µM each time. The TGI in assay [7], in assay [9], in [15], in [10], in [11] and in assay [12] was greater than 100 µM each time. The TGI in [13] and in assay [14] was greater than 100 µM throughout.

For the molecule `CSc1c(C#N)c(O)n(-c2ccc(C)cc2)c(=O)c1C#N`, the TGI in [1], in [2], in assay [3], in [4], in assay [5] and in [6] was greater than 100 µM in each case. In addition, the TGI in assay [7], in assay [9], in [15], in [10], in assay [11] and in [12] was greater than 100 µM each time. The TGI in [13] and in [14] was greater than 100 µM throughout.

As for `CCOC(=O)N1CCN(c2c(C)nc(C)[nH]c2=O)CC1`, the TGI in assay [1], in [2], in assay [3], in assay [4], in assay [5] and in assay [7] was greater than 100 µM each time. In addition, the TGI in assay [8], in assay [9], in assay [15], in assay [10], in [11] and in [12] was greater than 100 µM in each case. Besides, the TGI in assay [13] and in assay [14] was greater than 100 µM each time.

Take `C[C@]12CCC3c4ccc(O)cc4CC[C@H]3C1CC(=O)N(N)C2=O` (stereo not given in full): the TGI in [1], in [3], in assay [5], in assay [6], in assay [7] and in assay [8] was greater than 100 µM throughout. Besides, the TGI in assay [9], in [15], in assay [10], in assay [11], in [12] and in assay [13] was greater than 100 µM throughout. Moreover, the TGI in assay [14] is greater than 100 µM.

As to `Cc1c(/C=N/NC(=S)Nc2cccc(Cl)c2)c(=O)n(-c2ccccc2)n1C`, the TGI in [1] was greater than 100 µM; in assay [2], greater than 100 µM; in assay [3], greater than 100 µM; in [4], greater than 100 µM; in [5], 42.4 µM; in [8] it was greater than 100 µM. For the same molecule, the TGI in assay [15] is 19.9 µM; in assay [10], 36.7 µM; in assay [11] it was greater than 100 µM; in assay [12], 66.9 µM; in [13], 38.2 µM; in [14] it was 44.3 µM.

On to `CCSc1c(C)c2c(n(Cc3ccc(OC)cc3)c1=O)Cc1ccccc1C2`, for which the TGI in assay [1] is greater than 100 µM; in [2], greater than 100 µM; in assay [3], 32.5 µM; in assay [5], 54.2 µM; in assay [6], greater than 100 µM; in assay [7], 40.1 µM. Besides, the TGI is greater than 100 µM in assay [8]; greater than 100 µM in [9]; greater than 100 µM in [10]; 21.3 µM in assay [11]; greater than 100 µM in assay [12]; greater than 100 µM in assay [13]. This molecule also came in with a TGI in [14] of 73.3 µM.

Turning to `COc1cc(C2S/C(=C/c3ccccc3)C(=O)N2c2cc(Cl)ccc2Cl)cc(OC)c1OC` (stereo not given), the TGI in assay [1] was greater than 100 µM; in assay [2], greater than 100 µM; in assay [3], 28.1 µM; in assay [4] it was greater than 100 µM; in [5], 68.3 µM; in assay [7], 50.4 µM. Further, the TGI in assay [8] is greater than 100 µM; in [9] it was greater than 100 µM; in assay [15] it was greater than 100 µM; in [10], 53.1 µM; in assay [11], greater than 100 µM; in assay [12], greater than 100 µM. The TGI in assay [13] and in assay [14] was greater than 100 µM in each case.

With `CNC(=O)CCNC(=O)CCC(=O)N(C)C`, the TGI in assay [1], in [2], in assay [3], in [4], in assay [6] and in assay [7] was greater than 100 µM in each case. Further, the TGI in assay [9], in assay [15], in [10], in [11], in assay [12] and in assay [13] was greater than 100 µM throughout. This molecule yielded a TGI in assay [14] greater than 100 µM.

Consider `CCN(CC)CCNc1ccc2ncn3c4c(OC)ccc(OC)c4c(=O)c1c23`, for which the TGI was greater than 100 µM in assay [1]; 38.5 µM in assay [2]; 17.3 µM in [3]; 44.2 µM in assay [7]; 27.1 µM in assay [8]; 54.4 µM in assay [9]. For the same molecule, the TGI in assay [15] was greater than 100 µM; in assay [10] it was 17.2 µM; in assay [11], 43.6 µM; in [12], 25.7 µM; in [13], 44.9 µM; in assay [14], greater than 100 µM.

Turning to `N#Cc1nc(C2CC2)oc1N`, the TGI in assay [1], in assay [2], in [3], in assay [4], in [5] and in [6] was greater than 100 µM in each case. Moreover, the TGI in assay [7], in assay [8], in [9], in assay [10], in assay [11] and in [12] was greater than 100 µM in each case. The TGI in [13] and in [14] was greater than 100 µM in each case.

Turning to `Cn1c(NN)nc(-c2ccc([N+](=O)[O-])cc2)c(C#N)c1=O`, the TGI in assay [1] was 30.9 µM; in assay [2] it was 42.4 µM; in [3] it was 25.4 µM; in [4] it was greater than 100 µM; in [5], 39.9 µM; in assay [6], 42.9 µM. In addition, the TGI was 29.9 µM in assay [7]; greater than 100 µM in assay [8]; 43.4 µM in assay [9]; 31.1 µM in assay [10]; 43.8 µM in [11]; 30 µM in assay [12]. In addition, the values for the TGI in assay [13] and in [14] were 28.2 µM and 27.4 µM, respectively.

As for `O=c1[nH]c(=O)n(C2CC(O)C(CO)O2)cc1OCCc1ccccc1` (stereo not given), the TGI in assay [1], in [2], in assay [3], in assay [4], in assay [5] and in assay [6] was greater than 100 µM in each case. Besides, the TGI in [7], in [8], in assay [9], in [10], in [11] and in assay [12] was greater than 100 µM each time. The TGI in [13] and in [14] was greater than 100 µM each time.

As to `COC(=O)Nc1nc2ccc(Oc3ccc4nc(NC(=O)OC)[nH]c4c3)cc2[nH]1`, the TGI is greater than 100 µM in assay [1]; greater than 100 µM in assay [2]; greater than 100 µM in assay [3]; greater than 26.7 µM in assay [4]; greater than 54.4 µM in [5]; greater than 100 µM in assay [6]. The TGI in assay [7] is greater than 100 µM; in assay [9] it was greater than 100 µM; in [15] it was greater than 51.4 µM; in [11], greater than 21.9 µM; in [12], 6.09 µM; in assay [13] it was greater than 100 µM. This molecule returned a TGI in assay [14] greater than 63.7 µM.

As to `Clc1cc(OCc2nn3c(Cc4ccccc4)nnc3s2)ccc1OCc1nn2c(Cc3ccccc3)nnc2s1`, the TGI in assay [1] is 79.4 µM; in assay [2], greater than 100 µM; in assay [3] it was greater than 100 µM; in [4] it was greater than 100 µM; in assay [5] it was greater than 100 µM; in [6], greater than 100 µM. The TGI is greater than 100 µM in assay [7]; greater than 100 µM in [9]; 79.6 µM in assay [15]; greater than 100 µM in assay [10]; greater than 100 µM in assay [11]; greater than 100 µM in [12]. In addition, the TGI in assay [13] is greater than 100 µM; in assay [14], 72.1 µM.

Turning to `C#CCn1c(=O)ccn(/C(=C\C(=O)OCC)C(=O)OCC)c1=O`, the TGI is 12.7 µM in assay [1]; 6.63 µM in assay [2]; 16.5 µM in assay [3]; greater than 23.9 µM in [4]; 29.8 µM in assay [5]; 30.9 µM in assay [6]. Further, the TGI in assay [8] was greater than 20.9 µM; in assay [9] it was 43.8 µM; in assay [15], 36 µM; in assay [10] it was 42.4 µM; in assay [11], greater than 43.5 µM; in [12], 31.1 µM. The results for the TGI in [13] and in assay [14] were greater than 59.9 µM and 3.45 µM, respectively.

On to `CSc1ccccc1P(c1ccccc1SC)c1ccccc1SC`, for which the TGI in assay [1], in assay [2], in assay [3], in assay [4], in assay [6] and in assay [8] was greater than 100 µM throughout. Further, the TGI in [9], in assay [15], in [10], in assay [11], in assay [12] and in [13] was greater than 100 µM throughout. Also, the TGI in assay [14] is greater than 100 µM.

For `O=C(O)CN=C(C(=NCC(=O)O)c1ccccc1)c1ccccc1`, the TGI in assay [1], in [2], in assay [3], in [4], in [6] and in assay [7] was greater than 100 µM throughout. Moreover, the TGI in [9], in assay [15], in assay [10], in assay [11], in [12] and in assay [13] was greater than 100 µM in each case. The same molecule registered a TGI in assay [14] greater than 100 µM.

Consider `O=c1[nH]c(=O)n(C2CC(O)C(CO)O2)cc1NN=NCCc1ccccc1` (stereo not given), for which the TGI in [1], in [2], in assay [3], in assay [4], in assay [5] and in [6] was greater than 100 µM each time. Also, the TGI in [7], in assay [8], in assay [9], in [10], in assay [11] and in assay [12] was greater than 100 µM throughout. Further, the TGI in [13] and in assay [14] was greater than 100 µM each time.

These data come from PubChem BioAssay (NCI).
